Source: patent publication US10513500B2, “Crystalline forms of Lesinurad” (Apotex Inc., priority 2016, dated 2019)
“Also recorded” adds a separate entry of the source. Each block holds one molecule with its values, some of them ahead of it.

Assays:
[1] = certain aqueous conditions, compared with Form 1; cited from earlier work
[2] = PXRD study of crystal form stability on storage; assay type: physicochemical
Experimental: Lesinurad Form APO-I can be characterized by a PXRD diffractogram comprising, among other peaks, characteristic peaks, expressed in degrees 2θ (±0.2°), at 7.8°, 15.1° and 27.0°. Preferably, the PXRD diffractogram further comprises at least three peaks, expressed in degrees 2θ (±0.2°), selected from the group consisting of: 14.5°, 15.6°, 16.4°, 17.6°, 18.5°, 19.9°, 22.1°, 23.5°, 25.9° and 29.3°. More preferably, the PXRD diffractogram further comprises peaks, expressed in degrees 2θ (±0.2°), at 14.5°, 15.6°, 16.4°, 17.6°, 18.5°, 19.9°, 22.1°, 23.5°, 25.9° and 29.3°. PXRD studies of a capped sample of Lesinurad Form APO-I have shown that this crystal form is stable following storage in a stability chamber maintained at 27° C./60% RH for 17 days.
Lesinurad Form APO-II can be characterized by a PXRD diffractogram comprising, among other peaks, characteristic peaks, expressed in degrees 2θ (±0.2°), at 7.9°, 15.2°, 16.5° and 25.4°. Preferably, the PXRD diffractogram further comprises at least two peaks, expressed in degrees 2θ (±0.2°), selected from the group consisting of: 14.4°, 15.7°, 17.7°, 18.4°, 22.1°, 22.8°, 23.5°, 26.5°, 28.8° and 29.3°. More preferably, the PXRD diffractogram further comprises peaks, expressed in degrees 2θ (±0.2°), at 14.4°, 15.7°, 17.7°, 18.4°, 22.1°, 22.8°, 23.5°, 26.5°, 28.8° and 29.3°. PXRD studies of a capped sample of Lesinurad Form APO-II have shown that this crystal form is stable following storage at room temperature and ambient humidity for 28 days.
Lesinurad Form APO-III can be characterized by a PXRD diffractogram comprising, among other peaks, characteristic peaks, expressed in degrees 2θ (±0.2°), at 6.2° and 19.9°. Preferably, the PXRD diffractogram further comprises at least four peaks, expressed in degrees 2θ (±0.2°), selected from the group consisting of: 7.6, 10.3°, 14.1°, 15.3°, 17.8°, 21.1°, 23.4°, 25.7° and 27.2°. More preferably, the PXRD diffractogram further comprises peaks, expressed in degrees 2θ (±0.2°), at 7.6°, 10.3°, 14.1°, 15.3°, 17.8°, 21.1°, 23.4°, 25.7° and 27.2°. PXRD studies of capped and uncapped samples of Lesinurad Form APO-III have shown that this crystal form is stable following storage in stability chambers maintained at 27° C./60% RH and 40° C./75% RH for 18 days.
Data were acquired on a PANanalytical X-Pert Pro MPD diffractometer with fixed divergence slits and an X'Celerator RTMS detector. The diffractometer was configured in Bragg-Brentano geometry; data was collected over a 2-theta range of 3° to 40° using CuKα radiation at a power of 40 mA and 45 kV. […] was removed using a divergent beam nickel filter. A step size of 0.017° was used. Samples were rotated to reduce preferred orientation effects. Samples were lightly ground prior to analysis. […]

[3] = Stability study under stress conditions (impurities, area %); assay type: physicochemical; details: for Major Unidentified Impurity: RRT in brackets
Experimental: (§1) The stability of Lesinurad Form APO-III was assessed under various stress conditions as outlined in Table 5.

[4] = Hygroscopicity on storage in humid, high temperature environment; assay type: physicochemical; details: stress conditions of Table 5 (open sample, 40° C./75% RH, 21 days)
Experimental: as §1
The title solid form of Lesinurad was prepared according to the procedure in Example 14 of WO 2015/095703 A1. A suspension of Lesinurad (1 g) in ethyl acetate (63 mL) was sonicated at room temperature for 30 minutes in order to achieve dissolution. Proline (570 mg) was added to the solution, and the resulting suspension was stirred at room temperature for 26 hours, at which time the suspension was isolated by filtration to afford a solid (872.9 mg, 68% yield) having a PXRD diffractogram consistent with FIG. 22 in WO 2015/095703 A1. […]

[5] = primary amine group; cited from earlier work
[6] = dry heat, heat/humidity and light exposure
[7] = light exposure 200 W·hr/m^2 UV + 1.2M LUX hr fluorescent
[8] = open sample, dry heat, solid state, 60° C./ambient RH, 21 days
[9] = open sample, heat/humidity, solid state, 40° C./75% RH, 21 days
[10] = sample wrapped in foil (control), light exposure 200 W·hr/m^2 UV + 1.2M LUX hr fluorescent

crystal form stability by PXRD ([2]; capped sample, room temperature and ambient humidity, 28 days): no change; also recorded: stable
Structure (SMILES): O=C(O)CSc1nnc(Br)n1-c1ccc(C2CC2)c2ccccc12 [Lesinurad Form APO-II, Lesinurad]

Total Identified Impurity ([3]; Non-stressed sample): 0.09 area % | Total Impurities ([3]; Non-stressed sample): 0.33 area % | Total Unidentified Impurity ([3]; Non-stressed sample): 0.24 area % | Major Unidentified Impurity ([3]; Non-stressed sample): 0.08 (0.91) area % | loss of Lesinurad [3, 6]: no significant loss | stability to stress conditions [3, 6]: good stability | total degradation ([3]; dry heat, heat/humidity and light exposure (Table 5)): less than 0.10% | chemical and physical stability ([3]; humid and high temperature environment): chemically and physically stable | Total Identified Impurity [3, 7]: 0.10 area % | Total Impurities [3, 7]: 0.46 area % | Total Unidentified Impurity [3, 7]: 0.35 area % | Major Unidentified Impurity [3, 7]: 0.09 (0.92) area % | Total Identified Impurity [3, 8]: 0.10 area % | Total Impurities [3, 8]: 0.40 area % | Total Unidentified Impurity [3, 8]: 0.30 area % | Major Unidentified Impurity [3, 8]: 0.09 (0.91) area % | Total Identified Impurity [3, 9]: 0.09 area % | Total Impurities [3, 9]: 0.38 area % | Total Unidentified Impurity [3, 9]: 0.29 area % | Major Unidentified Impurity [3, 9]: 0.09 (0.91) area % | Total Identified Impurity [3, 10]: 0.10 area % | Total Impurities [3, 10]: 0.42 area % | Total Unidentified Impurity [3, 10]: 0.32 area % | Major Unidentified Impurity [3, 10]: 0.09 (0.92) area % | crystal form stability by PXRD ([2]; capped and uncapped samples, 27° C./60% RH, 18 days): no change; also recorded: stable | crystal form stability by PXRD ([2]; capped and uncapped samples, 40° C./75% RH, 18 days): no change; also recorded: stable | hygroscopicity [4]: did not exhibit signs of hygroscopicity
Structure (SMILES): O=C(O)CSc1nnc(Br)n1-c1ccc(C2CC2)c2ccccc12 [Lesinurad Form APO-III, Lesinurad]

The remaining lines, values behind:

Structure (SMILES): O=C(O)CSc1nnc(Br)n1-c1ccc(C2CC2)c2ccccc12 [Form 2, Lesinurad]
solubility [1]: lower solubility than Form 1

Structure (SMILES): O=C(O)CSc1nnc(Br)n1-c1ccc(C2CC2)c2ccccc12 [Lesinurad Form APO-I, Lesinurad]
crystal form stability by PXRD ([2]; capped sample, stability chamber 27° C./60% RH, 17 days): stable; also recorded: no change

Structure (SMILES): O=C(O)[C@@H]1CCCN1 [Proline]
pKa [5]: approximately 10.6
